Results on three compounds are retold here after US10093929B2, “Modular RNA regulators and methods” (STC.UNM, priority 2013, dated 2018).

Test [1] relates to RNase III. Particulars: cited from earlier work.
The target in test [2] is FKBP12 (Homo sapiens, UniProt P62942). Particulars: cited from earlier work.
Test [3] relates to FKBP12-fusion proteins (GAL4DBD-FKBP, VPAD-FKBP). Description: FK1012-inducible luciferase transcription assay in CHO cells. The format is cell-based. Particulars: 200 nM, 10 hours. The procedure: Previously, syntheses of FK1012 variants either involve multi-step transformations with 18% overall yields, or a single-step cross metathesis with 50% yield with a 22-hour reaction time. […] Using dithiothreitol (DTT) as the linker, two equivalents of tacrolimus and one equivalent of DTT were coupled under the TEC reaction condition to produce FK1012-DT (Compound 15, FIG. 12) in one step within 15 minutes in quantitative yield (FIG. 12, Scheme (a)). […] For the assay, two DNA constructs were prepared, each one encoding an FKBP12-fusion protein. […]
Cells in 24-well plates were lysed with 100 μL of 1× Passive Lysis Buffer (Promega Corporation, Madison, Wis.) at room temperature for 10 minutes on a shaker. […] 90 μL of Luciferase substrate solution (5 mg of D-luciferin and 7 mg of coenzyme A in 33mL of Luciferase reading buffer, which includes 20 mM tricine, 1.07 mM (MgCO3)4Mg(OH)2.5H2O, 2.67 mM MgSO4, 0.1 mM EDTA, 33.3 mM dithiothreitol and 0.53 mM ATP in water) was added into each well with cell lysates. The signal was read with a 3 s delay and 1 s integration with GLOMAX multi-detection system (Promega Corp., Madison, Wis.). Obtained data were analyzed by KALEIDAGRAPH (Synergy Software, Reading, Pa.).

FKBP12, sequence (P62942 whole entry, species assumed, the tested form may be a part): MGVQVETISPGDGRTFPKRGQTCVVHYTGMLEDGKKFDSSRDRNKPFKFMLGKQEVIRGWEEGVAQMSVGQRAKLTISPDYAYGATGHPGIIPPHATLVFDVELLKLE

With `O=C1c2ccccc2C(=O)N1O` [N-hydroxyphthalimide], in test [1], the “affinity as RNase III inhibitor” value is on record as “low affinity”.

`CCC(C)(C)C(=O)C(=O)N1CCCC[C@H]1C(=O)O[C@H](CCc1ccc(OC)c(OC)c1)c1cccc(N)c1` [SLF, (1R)-1-(3-aminophenyl)-3-(3,4-dimethoxyphenyl)propyl ester-1-(3,3-dimethyl-1,2-dioxopentyl)-2S-piperidinecarboxylic acid]: in test [2], the “decrease of affinity for FKBP12 compared to tacrolimus” value is given as 10 fold.

On to `C=CC[C@@H]1/C=C(\C)C[C@H](C)C[C@H](OC)[C@H]2O[C@@](O)(C(=O)C(=O)N3CCCC[C@H]3C(=O)O[C@H](/C(C)=C/[C@@H]3CC[C@@H](O)[C@H](OC)C3)[C@H](C)[C@@H](O)CC1=O)[C@H](C)C[C@@H]2OC` [tacrolimus, Tacrolimus], for which the “induction of luciferase (compared to the no drug control)” value in test [3] was “not observed”.
